Measured values from patent US20170273922A1, “UREA AND BIS-UREA BASED COMPOUNDS AND ANALOGUES THEREOF USEFUL IN THE TREATMENT OF ANDROGEN RECEPTOR MEDIATED DISEASES OR DISORDERS” (THE ROYAL INSTITUTION FOR THE ADVACEMENT OF LEARNING/MCGILL …, priority 2014, published 2017).
“Also recorded” adds a separate entry of the source.

How the values were obtained:
22Rv1 cells = test: MTT assay (cytotoxicity), 22Rv1 cells; assay type: cell-based
Procedure, shortened: (§1)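 Following overnight attachment at 6-7×10^3 cells per well, cultures receive compound for 72 h in serum-containing (10% FBS) RPMI 1640. MTT then quantifies surviving cells, with each experiment done in triplicate and repeated at least twice.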

LNCaP cells = test: MTT assay (cytotoxicity), LNCaP cells; assay type: cell-based
Procedure, shortened: as §1

MB231 cells = test: MTT assay (cytotoxicity), MB231 cells; assay type: cell-based; details: 72 h treatment, Table 6.1
Protocol: (§2) MTT assays: LNCaP, 22Rv1, Du145, H1975, A549, MB231 and MCF-7 cells are maintained in RPMI 1640 supplemented with 10% FBS. Cells were seeded at a density of 6-7×10^3 cells per well in 96-well plates. After overnight incubation, cells in fresh RPMI 1640 supplemented with 10% FBS were exposed to DMSO vehicle control or test compounds at designated concentrations for 72 h. Viable cells were evaluated by MTT assays. Experiments were performed in triplicate and repeated at least twice.

DU145 cells = test: MTT assay (cytotoxicity), DU145 cells; assay type: cell-based; details: 72 h, Table 2.2
Procedure, shortened: as §1

H1975 cells = test: MTT assay (cytotoxicity), H1975 cells; assay type: cell-based; details: 72 h treatment, Table 6.1
Protocol: as §2

full-length IRF3 = target: T1, full-length IRF3 (Homo sapiens, UniProt Q14653); test: Full-length IRF3 ISRE-luc reporter assay; assay type: cell-based; details: PC3 cells, 24 h
T1 construct: co-transfected with full-length IRF3 or IRF3DBD-AR(1-547) expressing plasmids; expressed in transfected cells
T1 sequence (Q14653 1-427): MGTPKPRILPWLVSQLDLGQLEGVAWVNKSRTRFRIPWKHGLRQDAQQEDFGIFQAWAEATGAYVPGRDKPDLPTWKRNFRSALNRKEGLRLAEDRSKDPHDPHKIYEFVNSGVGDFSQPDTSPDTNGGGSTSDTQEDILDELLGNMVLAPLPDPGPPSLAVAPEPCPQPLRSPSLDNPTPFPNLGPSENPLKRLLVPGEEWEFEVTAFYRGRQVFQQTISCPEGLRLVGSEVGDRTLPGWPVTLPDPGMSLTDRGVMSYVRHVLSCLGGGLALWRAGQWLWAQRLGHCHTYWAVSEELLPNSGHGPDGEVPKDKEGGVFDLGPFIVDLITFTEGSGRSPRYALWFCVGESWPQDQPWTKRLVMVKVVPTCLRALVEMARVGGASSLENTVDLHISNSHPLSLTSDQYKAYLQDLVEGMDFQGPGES
Source text: For all of the others, cells were co-transfected with full-length IRF3 or IRF3DBD-AR(1-547) expressing plasmids and with the ISRE-luc reporter and pRL-TK plasmids. […] As IRF3DBD-AR(1-547) contains the DBD of IRF3, ISRE-luc reporter instead of the PSA-luc reporter was used in our assays.
HEK293 cells were co-transfected with IRF3DBD(1-133) or IRF3DBD-AR(1-547) or IRF3DBD-AR(181-547) or full-length IRF3 expressing plasmids and with the ISRE-luc reporter and the Renilla luciferase pRL-TK plasmids.
Here, IRF3-AR(1-547) is the fusion of IRF3 DBD with the AR NTD (1-547). […] The plasmids expressing IRF3-AR(1-547) (A) or wild-type IRF3 (B) or IRF3 DBD (for NT) as well as ISRE-luc and pRL-TK were transiently transfected into PC3 cells. […] Bic, bicalutamide; EPI, EPI-001.

MCF-7 cells = test: MTT assay (cytotoxicity), MCF-7 cells; assay type: cell-based; details: 72 h treatment, Table 6.1
Protocol: as §2

A549 cells = test: MTT assay (cytotoxicity), A549 cells; assay type: cell-based; details: 72 h treatment, Table 6.1
Protocol: as §2

VP16-AR(507-919) = VP16-AR(507-919) (NTD-deleted) PSA-luc reporter assay; details: 10 nM DHT, 24 h; PC3 or HEK293 cells
IRF3DBD-AR(1-547) = target: T2, IRF3DBD-AR(1-547) (Homo sapiens, UniProt P10275); test: IRF3DBD-AR(1-547) ISRE-luc reporter assay; assay type: cell-based; details: PC3 cells, 24 h
T2 construct: IRF3-AR(1-547) is the fusion of IRF3 DBD with the AR NTD (1-547); expressed in transfected cells
T2 sequence (P10275 1-547): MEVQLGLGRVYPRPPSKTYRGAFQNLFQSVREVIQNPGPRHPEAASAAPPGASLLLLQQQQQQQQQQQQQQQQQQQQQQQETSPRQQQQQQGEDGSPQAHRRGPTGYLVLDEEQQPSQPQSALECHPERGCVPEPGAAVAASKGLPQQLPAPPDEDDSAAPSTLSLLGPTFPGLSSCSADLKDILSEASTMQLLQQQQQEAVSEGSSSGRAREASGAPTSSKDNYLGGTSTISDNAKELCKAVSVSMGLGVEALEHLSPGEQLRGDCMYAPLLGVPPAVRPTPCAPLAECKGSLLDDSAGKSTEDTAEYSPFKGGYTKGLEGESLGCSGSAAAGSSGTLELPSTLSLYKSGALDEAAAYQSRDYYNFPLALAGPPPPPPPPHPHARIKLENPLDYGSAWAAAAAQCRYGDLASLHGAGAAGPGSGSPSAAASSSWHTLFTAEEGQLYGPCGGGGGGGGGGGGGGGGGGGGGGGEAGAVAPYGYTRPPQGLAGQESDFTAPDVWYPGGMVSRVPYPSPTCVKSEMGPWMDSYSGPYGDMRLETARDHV

[1] = tested on: liver hepatocellular carcinoma; test: MTT assay (72 h), liver hepatocellular carcinoma cell line of Table 6.1; assay type: cell-based; details: HepG2 cells, 72 h treatment, read-out: Cytotoxicity (IC50, μM) HepG2
[2] = MTT assay (cytotoxicity), 22Rv1 cells; assay type: cell-based; details: human, 22Rv1 cells, 72 h, Table 2.4
Procedure, shortened: as §1

[3] = MTT assay (cytotoxicity), LNCaP cells; assay type: cell-based; details: human, LNCaP cells, 72 h, Table 2.4
Procedure, shortened: as §1

[4] = MTT assay (cytotoxicity), MB231 cells; assay type: cell-based; details: human, 72 h treatment, Table 6.1
Protocol: as §2

[5] = MTT assay (cytotoxicity), DU145 cells; assay type: cell-based; details: human, DU145 cells, Table 2.4
Procedure, shortened: as §1

[6] = MTT assay (cytotoxicity), H1975 cells; assay type: cell-based; details: human, 72 h treatment, Table 6.1
Protocol: as §2

[7] = MTT assay (cytotoxicity), MCF-7 cells; assay type: cell-based; details: human, 72 h treatment, Table 6.1
Protocol: as §2

[8] = MTT assay (cytotoxicity), A549 cells; assay type: cell-based; details: human, 72 h treatment, Table 6.1
Protocol: as §2

[9] = MTT assay (72 h), liver hepatocellular carcinoma cell line of Table 6.1; assay type: cell-based; details: human, HepG2 cells (liver hepatocellular carcinoma), 72 h treatment, read-out: Cytotoxicity (IC50, μM) HepG2
AR-v7 = target: T3, AR-v7 (Homo sapiens, UniProt P10275); test: AR-v7-dependent PSA-luc reporter assay in HEK293 cells; details: 25 μM
T3 sequence (P10275 1-644 isoform P10275-3): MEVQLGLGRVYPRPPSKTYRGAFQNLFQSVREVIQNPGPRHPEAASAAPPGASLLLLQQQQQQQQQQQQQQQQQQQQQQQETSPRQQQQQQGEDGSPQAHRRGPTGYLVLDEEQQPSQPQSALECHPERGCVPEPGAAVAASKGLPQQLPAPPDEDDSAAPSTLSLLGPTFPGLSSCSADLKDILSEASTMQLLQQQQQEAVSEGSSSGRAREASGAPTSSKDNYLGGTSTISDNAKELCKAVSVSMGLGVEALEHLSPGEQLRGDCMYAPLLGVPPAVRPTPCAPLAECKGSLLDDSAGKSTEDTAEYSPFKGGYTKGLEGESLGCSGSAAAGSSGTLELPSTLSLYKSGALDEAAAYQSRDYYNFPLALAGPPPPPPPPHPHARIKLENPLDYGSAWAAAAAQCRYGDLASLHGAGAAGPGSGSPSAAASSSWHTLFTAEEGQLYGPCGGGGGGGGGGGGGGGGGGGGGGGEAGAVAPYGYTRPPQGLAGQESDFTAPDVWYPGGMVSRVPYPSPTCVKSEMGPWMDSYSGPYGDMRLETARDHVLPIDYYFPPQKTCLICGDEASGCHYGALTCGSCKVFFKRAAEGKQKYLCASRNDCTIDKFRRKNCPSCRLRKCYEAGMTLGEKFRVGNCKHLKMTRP
Protocol: Cells were exposed to vehicle control or compounds at designated concentrations (μM) for 48 h.

AR^v567es = target: T4, AR^v567es (Homo sapiens, UniProt P10275); details: 25 μM; COS-1 cells; cited from earlier work
T4 construct: host or cells: COS-1

AR-v7 in LNCaP cells = target: T5, AR-v7 in LNCaP cells (Homo sapiens, UniProt P10275); test: PSA-luc reporter assay in LNCaP cells transiently transfected with pIRES-AR-v7; details: 24 h
T5 sequence (P10275 1-644 isoform P10275-3): T3 sequence (P10275 1-644 isoform P10275-3)
Protocol: NT, LNCaP cells were transiently transfected with pIRES vector, PSA-luc and pRL-TK. […] Cells were then transiently transfected with PSA-Luc and pRL-TK and exposed to DMSO or compounds for 24 h, in triplicate.

[10] = tested on: endogenous AR-Vs in 22Rv1 cells; test: PSA-luc reporter assay in androgen-starved 22Rv1 cells (endogenous LBD-truncated AR variants); details: androgen-starved 3 days, 24 h exposure
Protocol: NT, LNCaP cells were transiently transfected with pIRES vector, PSA-luc and pRL-TK. […] Cells were then transiently transfected with PSA-Luc and pRL-TK and exposed to DMSO or compounds for 24 h, in triplicate. NT, not transfected with PSA-luc.
The ARs were probed by N-terminal directed AR antibody (N20, Santa Cruz); B) The 22Rv1 cells were androgen-starved (in phenol red-free medium+10% CS-FBS) for 3 days to ensure the full-length AR expressed in 22Rv1 are not activated. The 22Rv1 cells were subsequently co-transfected with PSA-luc and pRL-TK plasmids. […] Cells in phenol red-free medium+10% CS-FBS were exposed to DMSO or compounds for 24 h and harvested for Western blot analysis.
The cells were androgen-starved for 3 days and transfected with PSA-Luc and pRL-TK plasmids. NT, cells were transfected with empty vector. Cells were exposed to vehicle control or compounds for 24 h.

[11] = 22Rv1 cells, 72 h treatment, Table 6.1
[12] = LNCaP cells, 72 h treatment, Table 6.1

T4 sequence (P10275 with tags, fused parts or gaps limits assumed): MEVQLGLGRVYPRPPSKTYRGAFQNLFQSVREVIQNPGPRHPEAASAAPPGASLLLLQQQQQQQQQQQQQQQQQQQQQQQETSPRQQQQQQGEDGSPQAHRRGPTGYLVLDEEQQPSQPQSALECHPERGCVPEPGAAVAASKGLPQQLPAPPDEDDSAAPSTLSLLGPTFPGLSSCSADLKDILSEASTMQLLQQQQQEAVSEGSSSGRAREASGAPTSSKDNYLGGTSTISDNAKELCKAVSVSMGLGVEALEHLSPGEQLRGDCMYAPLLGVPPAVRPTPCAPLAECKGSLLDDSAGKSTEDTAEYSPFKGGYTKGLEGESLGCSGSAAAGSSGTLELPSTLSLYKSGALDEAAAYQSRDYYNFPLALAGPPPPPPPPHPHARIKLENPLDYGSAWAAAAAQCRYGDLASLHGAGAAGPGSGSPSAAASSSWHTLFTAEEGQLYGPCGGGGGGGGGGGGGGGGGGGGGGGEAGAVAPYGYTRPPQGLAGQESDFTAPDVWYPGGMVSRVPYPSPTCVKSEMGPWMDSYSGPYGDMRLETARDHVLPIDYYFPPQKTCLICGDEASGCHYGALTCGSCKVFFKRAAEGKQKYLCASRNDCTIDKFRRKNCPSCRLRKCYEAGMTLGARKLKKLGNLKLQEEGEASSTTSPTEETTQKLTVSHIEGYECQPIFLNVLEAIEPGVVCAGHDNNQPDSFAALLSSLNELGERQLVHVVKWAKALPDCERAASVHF

SMILES	IC50 (22Rv1 cells; [11]) [µM]	IC50 (LNCaP cells; [12]) [µM]	IC50 (MB231 cells) [µM]	IC50 (H1975 cells) [µM]	activity against wild-type IRF3 (ISRE-luc) (full-length IRF3)	IC50 (MCF-7 cells) [µM]	IC50 (A549 cells) [µM]	inhibition of DHT-induced activation of VP16-AR(507-919) (PSA-luc) (VP16-AR(507-919))	inhibition of IRF3-AR(1-547)-dependent ISRE-luc reporter activity (IRF3DBD-AR(1-547))	IC50 [1] [µM]	further results
N#Cc1ccc(NC(=O)N/C=C/c2cccc(C(F)(F)F)c2)cc1C(F)(F)F [Compound 410]	2.5	1.8	4	2.5	inactive	2.6	2.7	inactive	potently inhibit	0.92	IC50 (LNCaP cells; 72 h, Table 2.2): 4.4 µM; IC50 (DU145 cells): 10.4 µM
N#Cc1ccc(NC(=O)N/C=C/c2cccs2)cc1C(F)(F)F [Compound 428]	–	–	–	–	inactive	–	–	inactive	potently inhibit	–	IC50 at 72 h [2]: 3.7 µM; IC50 at 72 h [3]: 2.1 µM; IC50 at 72 h [4]: 7.6 µM; IC50 at 72 h [5]: 5.1 µM; IC50 at 72 h [6]: 7.7 µM; IC50 at 72 h [7]: 5.2 µM; IC50 at 72 h [8]: 4.7 µM; IC50 at 72 h [9]: 2.4 µM
O=C(N/C=C/c1cccc(C(F)(F)F)c1)Nc1cnccn1 [Compound 558]	0.1	0.06	0.3	2.4	–	< 0.5	0.09	–	–	0.14	IC50 (22Rv1 cells; 72 h, Table 2.1): 0.1 µM; IC50 (LNCaP cells; 72 h, Table 2.1): 0.06 µM
CC(C)(c1ccc(OCC(O)CO)cc1)c1ccc(OCC(O)CCl)cc1 (stereo not drawn) [EPI-001, reference compound]	–	–	–	–	–	–	–	–	–	–	inhibition of constitutive activation of AR-v7 (PSA-luc) (AR-v7): inhibit; also recorded: active; suppression of constitutive activation of AR^v567es in PSA-Luc reporter assay (AR^v567es): half; activity in LNCaP cells with forced expression of AR-v7 (PSA-luc) (AR-v7 in LNCaP cells): remain active; activity against constitutive activation of endogenous AR-Vs in 22Rv1 cells (PSA-luc) [10]: active
